From publication PMC10865806, “Structural insights into the molecular mechanism of high-level ceftazidime–avibactam resistance conferred by CMY-185” (mBio, 2024)

Tests used:
Assay type in all cases: biochemical, Escherichia coli
[1] = target: T1, CMY-2 variant Q120K_N346Y (Klebsiella pneumoniae, UniProt Q48434, N366Y/Q140K); assay: Competitive inhibition of cephalothin hydrolysis and avibactam inhibition kinetics
T1 construct: all CMY-2 variant genes encoding the mature enzyme without a signal peptide were cloned into the protein expression plasmid vector pET-30b; made in house; host or cells: E. coli BL21 (DE3), pET-30b
From the text: (§1) We tested the enzymes, CMY-2, two single mutants V211S (CMY-42) and N346Y, three double mutants A114E_N346Y, Q120K_N346Y, and V211S_N346Y, and the quadruplet mutant CMY-185 to elucidate the impact on the kinetic properties resulting from the four amino acid substitutions present in CMY-185 compared with CMY-2 ([8]). The steady-state kinetic parameters kcat and Km (or Ki app) for nitrocefin, cephalothin, ceftazidime, and cefiderocol and the inhibition parameters Ki app, k2/K, k−2, and koff for avibactam are summarized in Table 1. During the hydrolysis of nitrocefin, we observed the reduction of the initial velocity at concentrations above 50 µM particularly for the CMY-2 variants harboring the N346Y substitution. As this could have represented substrate inhibition, we then determined the kinetics parameters for nitrocefin using the Haldane equation ([16]). […] In addition, during the hydrolysis of cefiderocol by CMY-185, the initial velocities at a concentration range of 3.7–59.4 µM were similar.
(§2) The steady-state kinetics were carried out on a UV-Visible spectrometer (UV-1280, Shimadzu, Japan) in PBS pH 7.2 at 25°C with a constant amount of enzyme and varying concentrations of the substrates. We tested nitrocefin, cephalothin, ceftazidime, and cefiderocol as the substrates and avibactam as the inhibitor. The steady-state kinetics parameters Km and kcat were determined with the Michaelis-Menten equation. For poorly hydrolyzed substrates, the Km value was assumed to be the competitive inhibition constant (Ki app) value according to previous studies ([17], [19]). Inhibition parameter values of Ki app, k2/K, k−2, and koff for avibactam were determined using a method as described previously ([33]). Cephalothin was used as the reporter substrate for competitive inhibition experiments, and its concentration was fixed at 100 µM. The enzyme concentration was 1–10 nM. Inverse steady-state initial velocities were plotted against the concentration of the competitive inhibitor agents, such as ceftazidime, cefiderocol, and avibactam. The data were analyzed by linear regression analysis of the Dixon plot, and Ki app (observed) was determined by dividing the y-intercept value by the slope of the line. It was then corrected to account for the affinity of cephalothin for each enzyme using the Equation (1):
(§3) (1) Ki app=Ki app (observed)/{1+[S]/Km (cephalothin)}
(§4) where [S] represents the concentration of the reporter substrate cephalothin, and Km (cephalothin) is the Km value of cephalothin for each enzyme.
(§5) The koff value was determined using a jump dilution assay. The enzyme and avibactam were mixed and preincubated at 25°C for 5 min. The concentration of avibactam depended on the enzyme and concentrations 10-fold higher from each Ki app (observed) value were adopted, which were determined based on the corrected competitive inhibition constants Ki app. Preincubated enzyme-avibactam mixture was then diluted 2,000-fold in the 100 µM cephalothin solution, and the hydrolysis of cephalothin was measured. Three independent measurements were performed for each enzyme and substrate or inhibitor combination. Curve fittings using linear or non-linear regression were performed with R 4.1.3 (R Core Team, 2022).

CMY-2 [2] = target: T2, CMY-2 (Klebsiella pneumoniae, UniProt Q48434); assay: as above; settings: for Ki: reporter substrate cephalothin 100 µM, Dixon plot, read-out: Ki app
T2 construct: all CMY-2 variant genes encoding the mature enzyme without a signal peptide were cloned into the protein expression plasmid vector pET-30b; made in house; host or cells: E. coli BL21 (DE3), pET-30b
From the text: as §1, §2, §3, §4, §5

CMY-2 variant N346Y [3] = target: T3, CMY-2 variant N346Y (Klebsiella pneumoniae, UniProt Q48434, N366Y); assay: as above; settings: for Ki: reporter substrate cephalothin 100 µM, Dixon plot, read-out: Ki app
T3 construct: all CMY-2 variant genes encoding the mature enzyme without a signal peptide were cloned into the protein expression plasmid vector pET-30b; made in house; host or cells: E. coli BL21 (DE3), pET-30b
From the text: as §1, §2, §3, §4, §5

[4] = target: T4, CMY-2 variant A114E_N346Y (Klebsiella pneumoniae, UniProt Q48434, A134E/N366Y); assay: as above; settings: for Ki: reporter substrate cephalothin 100 µM, Dixon plot, read-out: Ki app
T4 construct: all CMY-2 variant genes encoding the mature enzyme without a signal peptide were cloned into the protein expression plasmid vector pET-30b; made in house; host or cells: E. coli BL21 (DE3), pET-30b
From the text: as §1, §2, §3, §4, §5

V211S (CMY-42) [5] = target: T5, V211S (CMY-42) (Klebsiella pneumoniae, UniProt Q48434, V231S); assay: as above
T5 construct: all CMY-2 variant genes encoding the mature enzyme without a signal peptide were cloned into the protein expression plasmid vector pET-30b; made in house; host or cells: E. coli BL21 (DE3), pET-30b
From the text: as §1, §2, §3, §4, §5

[6] = target: T6, CMY-2 variant V211S_N346Y (Klebsiella pneumoniae, UniProt Q48434, N366Y/V231S); assay: as above
T6 construct: all CMY-2 variant genes encoding the mature enzyme without a signal peptide were cloned into the protein expression plasmid vector pET-30b; made in house; host or cells: E. coli BL21 (DE3), pET-30b
From the text: as §1, §2, §3, §4, §5

CMY-185 [7] = target: T7, CMY-185 (Klebsiella pneumoniae, UniProt Q48434, A134E/N366Y/Q140K/V231S); assay: as above
T7 construct: all CMY-2 variant genes encoding the mature enzyme without a signal peptide were cloned into the protein expression plasmid vector pET-30b; made in house; host or cells: E. coli BL21 (DE3), pET-30b
From the text: as §1, §2, §3, §4, §5

[8] = target: T1, CMY-2 variant Q120K_N346Y; assay: Steady-state hydrolysis kinetics; settings: for Km / kcat: PBS pH 7.2, 25°C
From the text: as §1
as §2, with “(1): […]” for “(1):”

V211S (CMY-42) [9] = target: T5, V211S (CMY-42); assay: Steady-state hydrolysis kinetics; settings: for Km / kcat: PBS pH 7.2, 25°C
From the text: as §1
as §2, with “(1): […]” for “(1):”

[10] = target: T6, CMY-2 variant V211S_N346Y; assay: Steady-state hydrolysis kinetics; settings: V211S_N346Y; for Km / kcat: PBS pH 7.2, 25°C
From the text: as §1
as §2, with “(1): […]” for “(1):”

CMY-185 [11] = target: T7, CMY-185; assay: Steady-state hydrolysis kinetics; settings: for Km / kcat: PBS pH 7.2, 25°C
From the text: as §1
as §2, with “(1): […]” for “(1):”

CMY-2 variant N346Y [12] = target: T3, CMY-2 variant N346Y; assay: Steady-state hydrolysis kinetics; settings: for Km / kcat: PBS pH 7.2, 25°C
From the text: as §1
as §2, with “The enzyme concentration was 1–10 nM.” left out, “(1): […]” for “(1):”

[13] = target: T4, CMY-2 variant A114E_N346Y; assay: Steady-state hydrolysis kinetics; settings: for Km / kcat: PBS pH 7.2, 25°C
From the text: as §1
as §2, with “The enzyme concentration was 1–10 nM.” left out, “(1): […]” for “(1):”

CMY-2 [14] = target: T2, CMY-2; assay: Steady-state hydrolysis kinetics
From the text: as §1
as §2, with “The enzyme concentration was 1–10 nM.” left out, “(1): […]” for “(1):”

[15] = system: O=C(Cc1cccs1)N[C@@H]1C(=O)N2C(C(=O)O)=C(/C=C/c3ccc([N+](=O)[O-])cc3[N+](=O)[O-])CS[C@H]12; assay: Steady-state hydrolysis kinetics; settings: other: CMY-2, PBS pH 7.2, 25°C
From the text: as §1
as §2, with “The enzyme concentration was 1–10 nM.” left out, “(1): […]” for “(1):”

[16] = system: CC(=O)OCC1=C(C(=O)O)N2C(=O)[C@@H](NC(=O)Cc3cccs3)[C@H]2SC1; assay: Steady-state hydrolysis kinetics; settings: other: CMY-2, PBS pH 7.2, 25°C
From the text: as §1
as §2, with “The enzyme concentration was 1–10 nM.” left out, “(1): […]” for “(1):”

[17] = reporter substrate cephalothin 100 µM, Dixon plot, read-out: Ki app
[18] = substrate inhibition, Haldane equation
[19] = substrate 100 µM, 100–200 nM enzyme

## NC(=O)[C@@H]1CC[C@@H]2CN1C(=O)N2OS(=O)(=O)O [Avibactam, avibactam]
[1]; Q120K_N346Y compared to CMY-2 and V211S
  fold higher Ki app: 10,000 fold
[1]; Q120K_N346Y compared to N346Y
  fold higher Ki app: 10 fold
[1]; Q120K_N346Y, decarbamoylation rate constant
  k−2: 0.002 ± 0.0001 s⁻¹
[1]; Q120K_N346Y, jump dilution assay
  koff: 4e-06 s⁻¹
[1]; Q120K_N346Y, reporter substrate cephalothin 100 µM, Dixon plot, read-out: Ki app
  Ki: 590 µM
CMY-2 [2]; decarbamoylation rate constant
  k−2: 0.00012 ± 2e-05 s⁻¹
CMY-2 [2]; jump dilution assay
  koff: 7.3e-05 s⁻¹
CMY-2 [2]
  Ki: 63 nM
CMY-2 [2]; second-order carbamoylation rate constant, read-out: k2/K
  kinact/KI: 28000 M⁻¹ s⁻¹
CMY-2 variant N346Y [3]; N346Y compared to CMY-2 and V211S
  fold higher Ki app: 1,000 fold
CMY-2 variant N346Y [3]; N346Y, decarbamoylation rate constant
  k−2: 1e-05 ± 0.00016 s⁻¹
CMY-2 variant N346Y [3]; N346Y, jump dilution assay
  koff: 2.6e-06 s⁻¹
CMY-2 variant N346Y [3]; N346Y
  Ki: 41 ± 6 µM
[4]; decarbamoylation rate constant
  k−2: 0.00011 ± 0 s⁻¹
[4]; jump dilution assay
  koff: 9e-07 s⁻¹
[4]
  Ki: 80 ± 9 µM
V211S (CMY-42) [5]; decarbamoylation rate constant
  k−2: 0.00015 ± 2e-05 s⁻¹
V211S (CMY-42) [5]; jump dilution assay
  koff: 6e-05 s⁻¹
V211S (CMY-42) [5]; [17]
  Ki: 34 nM
[6]; decarbamoylation rate constant
  k−2: 0.00044 ± 0.00021 s⁻¹
[6]; jump dilution assay
  koff: 2.4e-06 s⁻¹
[6]; [17]
  Ki: 14 ± 4 µM
CMY-185 [7]; CMY-185, decarbamoylation rate constant
  k−2: 0.0007 ± 5e-05 s⁻¹
CMY-185 [7]; CMY-185, jump dilution assay
  koff: 4.8e-07 s⁻¹
CMY-185 [7]; CMY-185, reporter substrate cephalothin 100 µM, Dixon plot, read-out: Ki app
  Ki: 1.3 mM
CMY-185 [7]; CMY-185 compared to CMY-2 and V211S
  fold higher Ki app: 20,000 fold

## CC(=O)OCC1=C(C(=O)O)N2C(=O)[C@@H](NC(=O)Cc3cccs3)[C@H]2SC1 [Cephalothin, cephalothin]
[8]
  Km: 18 ± 3 µM
  kcat: 42 ± 5 s⁻¹
V211S (CMY-42) [9]
  Km: 7.5 ± 1.1 µM
  kcat: 83 ± 7 s⁻¹
[10]
  Km: 4.4 ± 0.3 µM
  kcat: 9.6 ± 0.2 s⁻¹
CMY-185 [11]
  Km: 19 ± 1 µM
  kcat: 14 ± 1 s⁻¹
CMY-2 variant N346Y [12]
  Km: 3.9 ± 0.1 µM
  kcat: 18 ± 7 s⁻¹
[13]
  Km: 1.4 ± 0.1 µM
  kcat: 3.3 ± 0.1 s⁻¹

## O=C(Cc1cccs1)N[C@@H]1C(=O)N2C(C(=O)O)=C(/C=C/c3ccc([N+](=O)[O-])cc3[N+](=O)[O-])CS[C@H]12 [Nitrocefin, nitrocefin]
[8]
  Km: 50 ± 40 µM
  kcat: 120 ± 90 s⁻¹
[8]; [18]
  Ki: 14 ± 12 µM
V211S (CMY-42) [9]
  Km: 29 ± 12 µM
  kcat: 320 ± 102 s⁻¹
V211S (CMY-42) [9]; [18]
  Ki: 130 µM
[10]
  Km: 35 ± 10 µM
  kcat: 85 ± 18 s⁻¹
[10]; [18]
  Ki: 100 µM
CMY-185 [11]
  Km: 39 ± 24 µM
  kcat: 17 ± 9 s⁻¹
CMY-185 [11]; [18]
  Ki: 18 ± 13 µM
CMY-2 [14]; [18]
  Ki: 160 µM
CMY-2 variant N346Y [12]
  Km: 25 ± 3 µM
  kcat: 61 ± 5 s⁻¹
CMY-2 variant N346Y [12]; [18]
  Ki: 87 ± 25 µM
[13]
  Km: 16 ± 4 µM
  kcat: 57 ± 10 s⁻¹
[13]; [18]
  Ki: 68 ± 37 µM

## CMY-2 (Klebsiella pneumoniae)
[15]
  Km: 17 ± 5 µM
  kcat: 240 ± 50 s⁻¹
  kcat/Km: 1.4e+07 ± 5e+06 M⁻¹ s⁻¹
[16]
  Km: 4.1 ± 0.3 µM
  kcat: 54 ± 0.8 s⁻¹
  kcat/Km: 1.3e+07 ± 1e+06 M⁻¹ s⁻¹

## CC(C)(O/N=C(\C(=O)N[C@@H]1C(=O)N2C(C(=O)[O-])=C(C[n+]3ccccc3)CS[C@H]12)c1csc(N)n1)C(=O)O [Ceftazidime, ceftazidime]
[8]
  Km: 5.3 ± 0.5 µM
  kcat: 0.077 ± 0.003 s⁻¹
V211S (CMY-42) [9]
  Km: 74 ± 10 µM
  kcat: 1.5 ± 0.2 s⁻¹
[10]
  Km: 37 ± 2 µM
  kcat: 0.3 ± 0.0 s⁻¹
CMY-185 [11]
  Km: 2.2 ± 0.3 µM
  kcat: 0.1 ± 0.0 s⁻¹
CMY-2 [14]; [19]
  hydrolysis: no apparent hydrolysis
CMY-2 variant N346Y [12]; [19]
  hydrolysis: no apparent hydrolysis
[13]; [19]
  hydrolysis: no apparent hydrolysis
CMY-2 [2]
  Ki: 700 ± 100 nM
CMY-2 variant N346Y [3]; N346Y
  Ki: 0.7 ± 0.2 µM
[4]
  Ki: 0.3 µM
